From patent US20040038861A1, “Methods and compositions for normalizing lipid levels in mammalian tissues” (priority 2001, published 2004)
Where two headings read alike, the source gives them in different places.

Key:
[1] = target: binding sites for CGRP in rat liver membranes; settings: cited from earlier work
soleus muscle [2] = test: cAMP content of isolated soleus muscle from high fat-fed rats; assay type: cell-based, rat
Experimental: Soleus muscle preparation. All experiments were performed according to protocols approved by the Institutional Animal Ethics Committee. 5-6 week-old male Wistar rats (160 g) were kept on a 12:12-h light/dark cycle, and fed and watered ad libitum. Animals were anaesthetised with 50 mg/kg Nembutal (pentobarbitone sodium), then sacrificed by cervical dislocation. Soleus muscles were dissected under oxygenated KHB (118 mM NaCl, 4.75 mM KCl, 1.2 mM MgSO4, 24.8 mM NaHCO3, 1.2 mM KH2PO4, 2.54 mM CaCl2, 10 mM glucose, pH 7.4) and teased into halves, then incubated as described below.
For the measurement of cAMP in muscle, isolated soleus strips were incubated with stated concentrations of peptides, then lyophilized and deproteinized. Each strip was placed in 400 μl of 0.5 M HClO4 with 5 mM EDTA (phosphodiesterase inhibitor) and sonicated three times in 20 s bursts. Tubes were heated for 3-5 min in boiling water to coagulate protein, then centrifuged (12,000 g, 4° C., 2 min). Supernatant (300 μl) was taken and the pH adjusted to 7.0 with 75 μl of 2 M NH4OH. The samples were refrigerated (4° C., 2 h) to precipitate proteins, then centrifuged under the same conditions as above and 50 μl taken for cAMP measurement.

Wistar rats = test: Serum hormones and blood metabolites following acute CGRP infusion in anaesthetised normal-fed rats; assay type: in vivo, rat; settings: end vs commencement of infusion
Experimental: Surgery. Experiments were performed on male Wistar rats. Animals were randomly assigned to experimental groups as outlined below. Induction and maintenance of surgical anesthesia was by 3-5% halothane and 2L oxygen. An initial blood sample was taken from a tail artery for measurement of baseline levels of blood glucose and lactate, electrolyte, acid base and oxygen status and serum levels of free fatty acids, triglyceride and cholesterol. Immediately following this, the trachea was cannulated and the animal ventilated at 60-70 breaths.min-1 with air supplemented with O2. The respiratory rate and end-tidal pressure (10-15 cmH2O) were adjusted to maintain end-tidal CO2 at 35-40 mmHg. Body temperature was maintained at 37° C. throughout surgery and the experiment by a heating pad. The carotid artery and jugular vein were cannulated with a solid-state blood pressure transducer and a saline filled PE 50 catheter respectively. For the antagonist infusion studies, surgery was similar to above with the alteration being that both the carotid artery and jugular vein were cannulated with saline filled PE 50 catheters. Fluids (saline or hormone dissolved in saline) were delivered to the jugular vein with a Y-connector to join the two lines. The carotid artery line was connected to a blood pressure transducer. Blood samples were taken from this line at time zero (baseline reading), 30 minutes and every 20 minutes until the end of the experiment at 90 minutes.
Infusion. […] Blood glucose measurements were taken from tail capillaries at 5-minute intervals throughout the duration of the experiment. At the end of the infusion a terminal blood sample was taken by cardiac puncture and analysed as per the basal sample and also for various metabolites and hormones. Serum and plasma samples were stored at −80° C. until future analysis. Animals were killed by cervical dislocation and harvested tissues (brain, liver, kidney, soleus muscle, extensor digitorum longus muscle, left ventricle, retroperitoneal and epididymal fat pads) snap frozen in liquid N2 and stored at −80° C. until future analysis.

soleus muscle [3] = test: Masoprocol effect on CGRP1-evoked NEFA and triglyceride contents in soleus muscle from high fat-fed rats; assay type: cell-based, rat
Source text: Masoprocol, (nordihydroguaiaretic acid), is a lipoxygenase inhibitor, that has been identified as the active component of Creosote bush extracts. Oral administration of this compound lowers serum NEFA and triglyceride concentrations in rats with fructose-induced hypertriglyceridemia (Gowri et al. 2000, Am. J. Physiol. 279: E593-E600), and decrease blood glucose and triglyceride concentrations in a fat-fed/streptozotocin rat model (Reed et al. 1999, Diabetologia 42: 102-106).

[4] = target: CGRP-1 binding sites in rat skeletal muscle membrane; settings: rat skeletal muscle membrane preparations, cited from earlier work
[5] = target: T1, murine ramp 1/C1ins− receptor (Mus musculus, UniProt Q60755+Q9WTJ5); test: Radioligand binding and displacement of [3H]amylin in L6 myoblasts co-transfected with murine ramp 1 and C1ins−; settings: 10 nM radioligand, FIG. 8D
T1 construct: expressed in transfected cells; host or cells: L6 myoblasts (ATCC), transient co-transfection of pcDNA3.1 plasmids
T1 sequence (Q60755 42-496 isoform Q60755-2 limits assumed): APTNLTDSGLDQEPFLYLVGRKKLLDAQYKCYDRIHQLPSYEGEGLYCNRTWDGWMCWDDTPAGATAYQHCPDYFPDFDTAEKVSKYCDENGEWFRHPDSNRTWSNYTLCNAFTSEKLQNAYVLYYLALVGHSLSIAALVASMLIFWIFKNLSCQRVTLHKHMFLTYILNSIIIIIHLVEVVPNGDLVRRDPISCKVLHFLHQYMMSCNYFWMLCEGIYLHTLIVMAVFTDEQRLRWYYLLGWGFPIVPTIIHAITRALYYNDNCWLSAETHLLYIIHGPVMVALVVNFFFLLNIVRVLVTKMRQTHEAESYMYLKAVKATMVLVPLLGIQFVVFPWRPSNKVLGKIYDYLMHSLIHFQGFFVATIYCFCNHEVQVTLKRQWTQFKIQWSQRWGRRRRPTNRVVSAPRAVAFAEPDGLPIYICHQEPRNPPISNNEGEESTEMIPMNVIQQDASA
T1 sequence (Q9WTJ5 27-148 partner): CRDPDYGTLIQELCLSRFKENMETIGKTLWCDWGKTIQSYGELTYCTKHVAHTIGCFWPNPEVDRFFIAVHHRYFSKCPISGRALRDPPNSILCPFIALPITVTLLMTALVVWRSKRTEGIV
Experimental: Transfection of L6 myoblasts and cos-7 cells, and analysis of radioligand binding. L6 myoblasts and cos-7 cells were obtained from ATCC. Both cell lines were cultered in Dulbecco's modified Eagle's medium (DMEM; Gibco/BRL, high glucose) supplemented with 10% fetal calf serum (Gibco/BRL, Gaithersburg, Md.), L-glutamine (2 mM), penicillin (100 U/ml; Sigma), streptomycin (100 mg/ml; Sigma), saline (0.85%), under 5% CO2/95% air at 37° C. The day before transfection, cells were trypsinised and seeded into six-well plates at a density of 2.9×10^5 cells/well in the same medium. For transfection, cells were incubated with a mixture comprising 1 μg each of Qiagen-purified (Qiagen, Valencia, Calif.) plasmids containing C1ins− with either ramp 1 or ramp 3, and Fugene reagent (6 μl; Boehringer Mannheim) in Opti-Mem I medium (Gibco/BRL). The complex was added with serum to cells, which were incubated for a further 48 h.
For binding experiments, radioligand (either alone or together with stated final concentrations of non-radiolabeled ligands) was dissolved in DMEM containing 0.1% BSA (binding buffer) for 1 h before binding experiments were performed. […] Cells were washed twice with this buffer, then incubated with 1 ml of the same plus radioligand for 4 h at room temperature (21° C.).

[6] = read-out: Kd, high affinity binding site
[7] = read-out: Kd, second binding site
[8] = 1 pM CGRP1, high fat-fed soleus
[9] = 100 nM CGRP1, high fat-fed soleus

Substance	Kd [1, 6]	Kd [1, 7]	cAMP content, agonist alone (soleus muscle [2]; 1 pM CGRP, control 5.7±0.2)	cAMP content, agonist alone (soleus muscle [2]; 100 nM CGRP1, control 5.7±0.2)	Change in [serum] Triglyceride (Wistar rats; CGRP 60 min, CGRP-(8-37) 90 min, control 0.2)	Change in [serum] FFA (Wistar rats; control −0.1)	Change in Lactate (Wistar rats; heparinised whole blood, control 0.3)	NEFA elevation (soleus muscle [3]; [8])	soleus triglyceride content (decrement) (soleus muscle [3]; [8])	NEFA elevation (soleus muscle [3]; [9])	soleus triglyceride content (decrement) (soleus muscle [3]; [9])	Kd [4, 6]	Kd [4, 7]	specific binding of [3H]radioligand to L6 myoblasts co-transfected with ramp 1 and C1ins− [5]
rat CGRP-1	~0.044 nM	~27 nM	8.6 ± 0.4 pmol/mg	9.3 ± 1 pmol/mg	-0.7 mmol/L	0.4 mmol/L	1.7 mmol/L	482 ± 99 nmol/g	1.2 mmol/g	533 ± 114 nmol/g	1.2 mmol/g	~0.037 nM	~6 nM	–
Rat amylin	–	–	–	–	–	–	–	–	–	–	–	–	–	significant increases in specific binding
